The record followed here is ChEMBL document CHEMBL5126651, “ALK Inhibitors for Treating Cancer, Blood, and Kidney Diseases” (ACS Med Chem Lett, 2022).

In one assay the target is T1, TGF-beta receptor type-1 (Homo sapiens, UniProt P36897).
T1 sequence (P36897 whole entry): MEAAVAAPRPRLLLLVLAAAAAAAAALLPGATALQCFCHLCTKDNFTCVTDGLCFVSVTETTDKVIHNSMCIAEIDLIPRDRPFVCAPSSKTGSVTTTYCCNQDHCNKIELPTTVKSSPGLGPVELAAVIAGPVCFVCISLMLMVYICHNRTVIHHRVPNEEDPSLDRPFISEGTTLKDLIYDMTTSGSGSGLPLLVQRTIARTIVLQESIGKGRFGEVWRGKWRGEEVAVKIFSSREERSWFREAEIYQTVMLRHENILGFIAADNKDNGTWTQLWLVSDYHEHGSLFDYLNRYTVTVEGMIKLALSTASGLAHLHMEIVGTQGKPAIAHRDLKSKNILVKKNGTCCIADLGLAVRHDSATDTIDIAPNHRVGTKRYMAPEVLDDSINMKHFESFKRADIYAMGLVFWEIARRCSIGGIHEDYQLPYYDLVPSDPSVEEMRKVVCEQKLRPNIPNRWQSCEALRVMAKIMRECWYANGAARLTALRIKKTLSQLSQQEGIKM
Briefly: Displacement of Alexa Fluor labeled tracer 178 from ALK5 (unknown origin) using anti-GST antibody incubated for 60 mins by TR-FRET based LanthaScreen Eu-Kinase binding assay.

The species entered for another assay is Homo sapiens. Briefly: Selectivity ratio of IC50 for ALK2 (unknown origin) to IC50 for ALK5 (unknown origin).
The target of assay [1] is T2, TGF-beta receptor type-1 (Homo sapiens) (UniProt P36897).
T2 sequence (whole entry): T1 sequence (P36897 whole entry)
Description: Inhibition of TGF-beta receptor 1 in human RD cells transfected with Smad reporter plasmid by reporter gene based One-Glo luciferase assay. The format is cell-based.

`Cc1cccc2c(Nc3ccnc(Nc4cccc(N5CCOCC5)c4)n3)cnnc12`: the IC50 on TGF-beta receptor type-1 was ≤ 0.01 µM. In the assay filed under Homo sapiens, the Ratio IC50 is 10. In addition, in assay [1], the INH is < 100 nM.

Take `Cc1cccc2c(Nc3ccnc(Nc4ccc(N5CCOCC5)cc4)n3)cnnc12`: the IC50 at TGF-beta receptor type-1 is ≤ 0.01 µM. Besides, in the assay filed under Homo sapiens, the Ratio IC50 stood at 10. In addition, in assay [1], the INH was < 100 nM.

`Cc1cccc2c(Nc3ccnc(Nc4cc(CN5CCNCC5)ccc4F)n3)cnnc12`: at TGF-beta receptor type-1, the IC50 is ≤ 0.01 µM. In addition, in the assay filed under Homo sapiens, the Ratio IC50 was determined as 10. The INH in assay [1] was < 1000 nM.

On to `Cc1cccc2c(Nc3ccnc(Nc4cccc(CN5CCN(C)CC5)c4)n3)cnnc12`, for which the IC50 at TGF-beta receptor type-1 was ≤ 0.01 µM. Besides, the Ratio IC50 in the assay filed under Homo sapiens was > 10. Further, the INH in assay [1] was < 100 nM.

On to `Cc1cc(F)cc2c(Nc3ccnc(Nc4ccc(N5CCN(C)CC5)cc4)n3)cnnc12`, for which the IC50 on TGF-beta receptor type-1 is ≤ 0.01 µM. In addition, the Ratio IC50 in the assay listed under Homo sapiens is 10. In assay [1], the INH is < 100 nM.

As to `Cc1cccc2c(Nc3ccnc(Nc4ccc(N5CCOCC5)c(Cl)c4)n3)cnnc12`, at TGF-beta receptor type-1, the IC50 was ≤ 0.01 µM. Also, the Ratio IC50 in the assay listed under Homo sapiens is 10. Moreover, in assay [1], the INH was < 100 nM.

As to `Cc1c(F)ccc2c(Nc3ccnc(Nc4ccc(N5CCNCC5)cc4)n3)cnnc12`, the IC50 on TGF-beta receptor type-1 is ≤ 0.01 µM. The Ratio IC50 in the assay filed under Homo sapiens amounted to 10. Moreover, in assay [1], the INH is < 100 nM.

Turning to `Cc1cccc2c(Nc3ccnc(Nc4cc(F)cc(CN5CCNCC5)c4)n3)cnnc12`, the IC50 on TGF-beta receptor type-1 was ≤ 0.01 µM. Moreover, in the assay listed under Homo sapiens, the Ratio IC50 is > 10. For the same compound, the INH in assay [1] is < 100 nM.

As to `Cc1cccc2c(Nc3nc(Nc4cc(CN5CCNCC5)ccc4F)ncc3F)cnnc12`, the IC50 on TGF-beta receptor type-1 turned out to be 0.01 µM. For the same compound, the Ratio IC50 in the assay listed under Homo sapiens is > 10. The INH in assay [1] was < 1000 nM.

As for `Cc1c(F)ccc2c(Nc3ccnc(Nc4ccc(N5CCN(C)CC5)cc4)n3)cnnc12`, the IC50 on TGF-beta receptor type-1 was ≤ 0.01 µM. In addition, in the assay filed under Homo sapiens, the Ratio IC50 was 10. For the same compound, the INH in assay [1] was < 100 nM.

In the case of `Cc1cccc2c(Nc3ccnc(Nc4ccc(CC5CCNCC5)cc4)n3)cnnc12`, the IC50 on TGF-beta receptor type-1 is < 1 µM. Further, in the assay listed under Homo sapiens, the Ratio IC50 was 10. Besides, the INH in assay [1] was < 1000 nM.

As to `Cc1cccc2c(Nc3ccnc(Nc4ccc(N5CCNCC5)c(F)c4)n3)cnnc12`, the IC50 on TGF-beta receptor type-1 was ≤ 0.01 µM. In addition, the Ratio IC50 in the assay filed under Homo sapiens worked out at 10. The INH in assay [1] is < 100 nM.
